# Tests used:
# α-syn = target: T1, α-syn (Homo sapiens, UniProt P37840); experiment: α-syn aggregation kinetics, ThT fluorescent labeling; type: biochemical; settings: 35 μM α-syn, 5 ppm CuNCs or ligand alone, 37° C., 70 hours
# T1 construct: purchased Bachem Corp
# Description: CuNCs modified with different ligands were prepared according to literatures. Thioflavin T (abbreviation: ThT) is a highly sensitive fluorescent marker used to identify the presence of amyloid. […] When ThT encounters amyloid polypeptide or protein with a fiber structure, it will immediately adjacent to the amyloid polypeptides or proteins and its fluorescence intensity will increase exponentially. Therefore, ThT is widely used as a maker to monitor amyloidosis of peptides or proteins. This embodiment adopts ThT fluorescent labeling method to monitor the kinetics process of fibrosis aggregation of α-syn in the presence of CuNCs. The specific experiment method is as follows.
# Pretreatment of α-syn monomers: Dissolve freeze-dried α-syn powder (Bachem Corp.) in HFIP to obtain a 1 g/L α-syn solution. […]
# Sample preparation and detection: Add ligand modified CuNCs to α-syn PBS solution to reach final concentrations of 5 ppm and 35 μM for CuNCs and α-syn, respectively. Incubate the solution continuously in a 96-well plate at 37° C., monitor the fluorescence intensity by microplate reader every 10 minutes, and characterize the kinetics process of α-syn aggregation through the change of fluorescence intensity of ThT. […]
# RGC-5 cells = experiment: H2O2-induced glaucoma cell (RGC-5) model, CCK-8 cell viability; type: cell-based; settings: 20 ppm of GSH and 100 μM of H2O2, 24 hours
# Description: RGC-5 cells in logarithmic growth phase were diluted with complete medium (DMEM medium+10% FBS+1% penicillin-streptomycin) into a cell suspension with a density of 5×10^4/mL, inoculated with 100 μL per well in 96-well plates. The cells were cultured at 37° C. in a 5% CO2 incubator. After the cells were attached, the original culture solution was discarded, and 50 μL of different concentrations of CuNCs prepared from maintenance medium (DMEM medium+2% FBS+1% penicillin-streptomycin) were added to different wells. The final concentrations were 0.5, 5 and 20 ppm respectively (i.e. groups 5, 6, 7 respectively in FIG. 19). After pretreatment for 2 h, about 50 μL of H2O2 (final concentration of 105 μM) was added. The cells were incubated for 24 h, and 10% CCK-8 was added to each well for 4 h. The absorbance values of the respective wells were measured at the wavelength of 450 nm to evaluate the protection effect of CuNCs against H2O2-induced damages. In the above experiments, provided were a blank control group in which cells were not treated, a model control group in which cells were treated with 105 μM H2O2, a CuNCs control group in which 100 ppm of CuNCs were added but no H2O2 was added, and a ligand control group in which 20 ppm ligand and 105 μM H2O2 were added (i.e. groups 1, 2, 3, 4 respectively in FIG. 19).
# SH-sy5y cells = experiment: MPP+ induced PD cells (SH-sy5y) model, CCK-8 cell viability; settings: 1 mM MPP+, ligand 20 ppm, 24 h
# Description: 1) Take SH-sy5y cells in the logarithmic growth phase. Dilute them with complete medium to form a cell suspension with a cell density of 5×10^4/mL. Plate 200 μl of the cell suspension into each well of a 96-well plate and cultivate in an environment of 37° C. and 5% CO2 in an incubator. The sample is added after the cells are attached.
# 2) Add 100 μL of ligand-modified CuNCs samples or ligand-modified copper nanoparticles samples with different particle sizes, which are prepared using maintenance medium to make the final concentration being 0.1 ppm, 1 ppm, 5 ppm, 10 ppm and 20 ppm, respectively. After 2 hours of pretreatment with ligand-modified CuNCs, the different groups of cells were added with MPP^+ (final concentration is 1 mM). […] Then the cells were cultured at 37° C. for 24 h. After centrifugation to remove the culture medium, 100 μL maintenance medium containing 10% CCK-8 were added to each well, and then incubate for 4 h. The absorbance of each well was then measured at 450 nm. The absorbance could reflect the pre-protective and curative effects of ligand-modified CuNCs against MPP^+ lesion.
smiles,measurement,setting,value
"N[C@@H](CCC(=O)N[C@@H](CS)C(=O)NCC(=O)O)C(=O)O [GSH, L-glutathione]",α-syn aggregation and fibrosis (ThT fluorescence intensity),α-syn,does not have an obvious effect
same,"cell viability, ligand control group",RGC-5 cells,56.5±5.9%
same,"cell viability, ligand control group",SH-sy5y cells,56.9±3.4%

# Reference: patent US20210379199A1, “COPPER NANOCLUSTERS, COMPOSITION COMPRISING THE SAME, AND TREATMENT OF NEURODEGENERATIVE DISEASES” (Shenzhen Profound-View Pharma Tech Co., Ltd, priority 2019, published 2021)
